According to patent US12065396B2, “Lipids for use in lipid nanoparticle formulations” (ACUITAS THERAPEUTICS, INC., priority 2017, dated 2024):

What was measured:
[1] = test system: luciferase expression in the liver; test: Luciferase mRNA in vivo evaluation using lipid nanoparticle compositions; design: species or system mice; details: for Liver Luc @ 0.5 mg/kg (ng luc/g liver): 0.5 mg mRNA/kg; for Liver Luc @ 0.5 mg/kg (ng luc/g liver) / Liver Luc (ng luc/g liver), *dosed at 1.0 mg/kg: tail vein injection, liver 4 hours after administration; for Liver Luc (ng luc/g liver), *dosed at 1.0 mg/kg: 1.0 mg mRNA/kg (footnote *); for Relative activity in the luciferase assay relative to MC3: liver luciferase expression 4 hours after tail vein injection, 47.5/10/40.8/1.7 cationic lipid/DSPC/cholesterol/PEG-DMA
Protocol: A lipid of structure (I), DSPC, cholesterol and PEG-lipid were solubilized in ethanol at a molar ratio of 50:10:38.5:1.5 or 47.5:10:40.8:1.7. Lipid nanoparticles (LNP) were prepared at a total lipid to mRNA weight ratio of approximately 10:1 to 30:1. Briefly, the mRNA was diluted to 0.2 mg/mL in 10 to 50 mM citrate buffer, pH 4. Syringe pumps were used to mix the ethanolic lipid solution with the mRNA aqueous solution at a ratio of about 1:5 to 1:3 (vol/vol) with total flow rates above 15 mL/min. The ethanol was then removed and the external buffer replaced with PBS by dialysis. Finally, the lipid nanoparticles were filtered through a 0.2 μm pore sterile filter.
Studies were performed in 6-8 week old female C57BL/6 mice (Charles River) 8-10 week old CD-1 (Harlan) mice (Charles River) according to guidelines established by an institutional animal were committee (ACC) and the Canadian Council on Animal Cwere (CCAC). Varying doses of mRNA-lipid nanoparticle were systemically administered by tail vein injection and animals euthanized at a specific time point (e.g., 4 hours) post-administration. Liver and spleen were collected in pre-weighed tubes, weights determined, immediately snap frozen in liquid nitrogen and stored at −80° C. until processing for analysis.
For liver, approximately 50 mg was dissected for analyses in a 2 mL FastPrep tubes (MP Biomedicals, Solon Ohio). ¼″ ceramic sphere (MP Biomedicals) was added to each tube and 500 μL of Glo Lysis Buffer—GLB (Promega, Madison Wis.) equilibrated to room temperature was added to liver tissue. Liver tissues were homogenized with the FastPrep24 instrument (MP Biomedicals) at 2×6.0 m/s for 15 seconds. Homogenate was incubated at room temperature for 5 minutes prior to a 1:4 dilution in GLB and assessed using SteadyGlo Luciferase assay system (Promega). Specifically, 50 μL of diluted twassue homogenate was reacted with 50 μL of SteadyGlo substrate, shaken for 10 seconds followed by 5 minute incubation and then quantitated using a CentroXS^3 LB 960 luminometer (Berthold Technologies, Germany). The amount of protein assayed was determined by using the BCA protein assay kit (Pierce, Rockford, Ill.). Relative luminescence units (RLU) were then normalized to total g protein assayed. To convert RLU to ng luciferase a standard curve was generated with QuantiLum Recombinant Luciferase (Promega).
The FLuc mRNA (L-6107 or L-7602) from Trilink Biotechnologies will express a luciferase protein, originally isolated from the firefly, Photinus pyralwas. FLuc was commonly used in mammalian cell culture to measure both gene expression and cell viability. It emits bioluminescence in the presence of the substrate, luciferin. This capped and polyadenylated mRNA was fully substituted with 5-methylcytidine and pseudouridine.
Compounds of structure (I) were formulated using the following molar ratio: 47.5% cationic lipid/10% dwastearoylphosphatidylcholine (DSPC)/40.8% Cholesterol/1.7% PEG lipid (“PEG-DMA” 2-[2-(ω-methoxy(polyethyleneglycol2000)ethoxy]-N,N-ditetradecylacetamide). Relative activity was determined by measuring luciferase expression in the liver 4 hours following administration via tail vein injection as described in Example 1. […]
The cationic lipids shown in Table 2 have previously been tested with nucleic acids. For comparative purposes, these lipids were also used to formulate lipid nanoparticles containing the FLuc mRNA (L-6107) using an in line mixing method, as described in Example 1 and in PCT/US10/22614, which is hereby incorporated by reference in its entirety. Lipid nanoparticles may be formulated using the following molar ratio: 50% Cationic lipid/10% distearoylphosphatidylcholine (DSPC)/38.5% Cholesterol/1.5% PEG lipid (“PEG-DMG”, i.e., 1-(monomethoxy-polyethyleneglycol)-2,3-dimyristoylglycerol, with an average PEG molecular weight of 2000). In alternate embodiments, cationic lipid, DSPC, cholesterol and PEG-lipid are formulated at a molar ratio of approximately 47.5:10:40.8:1.7. […]

[2] = Determination of pKa of formulated lipids (TNS fluorescence assay in lipid nanoparticles); type: physicochemical
Source text: As described elsewhere, the pKa of formulated lipids was correlated with the effectiveness of LNPs for delivery of nucleic acids (see Jayaraman et al, Angewandte Chemie, International Edition (2012), 51(34), 8529-8533; Semple et al, Nature Biotechnology 28, 172-176 (2010)). In some embodiments, the preferred range of pKa was ˜5 to ˜7. […] Lipid nanoparticles comprising compound of structure (I)/DSPC/cholesterol/PEG-lipid (50/10/38.5/1.5 or 47.5:10:40.8:1.7 mol %) in PBS at a concentration of 0.4 mM total lipid were prepared using the in-line process as described in Example 1. TNS was prepared as a 100 μM stock solution in distilled water. Vesicles were diluted to 24 μM lipid in 2 mL of buffered solutions containing 10 mM HEPES, 10 mM MES, 10 mM ammonium acetate, and 130 mM NaCl, where the pH ranged from 2.5 to 11. An aliquot of the TNS solution was added to give a final concentration of […] and following vortex mixing fluorescence intensity was measured at room temperature in a SLM Aminco Series 2 Luminescence Spectrophotometer using excitation and emission wavelengths of 321 nm and 445 nm. A sigmoidal best fit analysis was applied to the fluorescence data and the pKa was measured as the pH giving rise to half-maximal fluorescence intensity.

[3] = TNS fluorescence, pH giving half-maximal fluorescence intensity, values in text

With `CCCCCCCCC(CCCCCC)COC(=O)CCCCCC(CCCCCC(=O)OCC(CCCCCC)CCCCCCCC)N(C)CCO` (stereo not drawn) [Compound 20] the “Liver Luc @ 0.5 mg/kg (ng luc/g liver)” value [1] was 92 ± 48 ng luc/g liver and the pKa ([2]; Table 3, TNS assay) was 6.25.
In the case of `CCCCCCCCC(=O)N(CCCCN(C)C)C(CCCCCCCCC(=O)OCC(CCCC)CCCCCC)CCCCCCCCC(=O)OCC(CCCC)CCCCCC` (stereo not drawn) [Compound 5], the “Liver Luc (ng luc/g liver), *dosed at 1.0 mg/kg” value (from here on “Liver Luc (ng luc/g liver)”) [1] is reported as 1422 ± 372* ng luc/g liver, the “Relative activity in the luciferase assay relative to MC3” value [1] is reported as 6.4 and the pKa [2, 3] is reported as 6.69. It also gave a pKa ([2]; Table 3, TNS assay) of 6.69.
For `CCCCCCCCCN(CCCCC(=O)NCCO)C(CCCCCCCCC(=O)OCC(CCCC)CCCCCC)CCCCCCCCC(=O)OCC(CCCC)CCCCCC` (stereo not drawn) [Compound 6], the “Liver Luc (ng luc/g liver)” value [1] was 318 ± 222* ng luc/g liver and the pKa ([2]; Table 3, TNS assay) was 6.1.
With `CCCCCCC(CCCC)COC(=O)CCCCCCCCC(CCCCCCCCC(=O)OCC(CCCC)CCCCCC)N(CC)CCCO` (stereo not drawn) [Compound 13] the “Liver Luc @ 0.5 mg/kg (ng luc/g liver)” value [1] was 514 ± 297 ng luc/g liver and the pKa ([2]; Table 3, TNS assay) was 6.03.
For `CCCCCCC(CCCC)COC(=O)CCCCCCCCC(CCCCCCCCC(=O)OCC(CCCC)CCCCCC)NCCCCC(=O)OCc1ccccc1` (stereo not drawn) [Compound 8], the “Liver Luc (ng luc/g liver)” value [1] was 550 ± 164* ng luc/g liver and the pKa ([2]; Table 3, TNS assay) was 6.09.
Work on `CCCCCCC(CCCC)COC(=O)CCCCCCCCC(CCCCCCCCC(=O)OCC(CCCC)CCCCCC)NCCCO` (stereo not drawn) [Compound 11] yielded a pKa [2, 3] of 8.04.
In the case of `CCCCCCCCCN(CCCO)C(CCCCCCCCC(=O)OCC(CCCC)CCCCCC)CCCCCCCCC(=O)OCC(CCCC)CCCCCC` (stereo not drawn) [Compound 12], the pKa [2, 3] is reported as 4.84.
For `CCCCCCCCC(CCCCCC)COC(=O)CCCCCC(CCCCCC(=O)OCC(CCCCCC)CCCCCCCC)N(C)CCCO` (stereo not drawn) [Compound 17], the “Liver Luc @ 0.5 mg/kg (ng luc/g liver)” value [1] was 405 ± 227 ng luc/g liver and the pKa ([2]; Table 3, TNS assay) was 6.39.
With `CCCCCCC(CCCC)COC(=O)CCCCCCCCC(CCCCCCCCC(=O)OCC(CCCC)CCCCCC)N(CCCCN(C)C)C(=O)C(CC)CCCC` (stereo not drawn) [Compound 4] the “Liver Luc (ng luc/g liver)” value [1] was 1213 ± 702* ng luc/g liver, the pKa [2, 3] was 6.49 and the pKa ([2]; Table 3, TNS assay) was 6.37.
In the case of `CCCCCCCCCN(CCCCC(=O)N(C)CCO)C(CCCCCCCCC(=O)OCC(CCCC)CCCCCC)CCCCCCCCC(=O)OCC(CCCC)CCCCCC` (stereo not drawn) [Compound 7], the “Liver Luc (ng luc/g liver)” value [1] is reported as 33 ± 18* ng luc/g liver and the pKa ([2]; Table 3, TNS assay) is reported as 5.83.
With `CCCCCCCCCN(CCCCC(=O)N(C)C)C(CCCCCCCCC(=O)OCC(CC)CCCC)CCCCCCCCC(=O)OCC(CC)CCCC` (stereo not drawn) [Compound 2] the pKa [2, 3] was 4.74.
With `CCCCCCC(CCCC)COC(=O)CCCCCCCCC(CCCCCCCCC(=O)OCC(CCCC)CCCCCC)N(CC)CCCCO` (stereo not drawn) [Compound 14] the “Liver Luc @ 0.5 mg/kg (ng luc/g liver)” value [1] was 238 ± 70 ng luc/g liver and the pKa ([2]; Table 3, TNS assay) was 6.19.
With `CCCCC(CC)COC(=O)CCCCCCCCC(CCCCCCCCC(=O)OCC(CC)CCCC)NCCCCC(=O)OCc1ccccc1` (stereo not drawn) [Compound 3] the “Liver Luc (ng luc/g liver)” value [1] was 1370 ± 674* ng luc/g liver, the “Relative activity in the luciferase assay relative to MC3” value [1] was 3.68 and the pKa [2, 3] was 6.53. For the same compound, the pKa ([2]; Table 3, TNS assay) was 6.38.
For `CCCCCCCCC(CCCCCC)COC(=O)CCCCCC(CCCCCC(=O)OCC(CCCCCC)CCCCCCCC)N(CC)CCCCO` (stereo not drawn) [Compound 15], the “Liver Luc @ 0.5 mg/kg (ng luc/g liver)” value [1] was 345 ± 141 ng luc/g liver and the pKa ([2]; Table 3, TNS assay) was 6.12.
In the case of `CCCCCCC(CCCC)COC(=O)CCCCCCCCC(CCCCCCCCC(=O)OCC(CCCC)CCCCCC)N(C)CCCCO` (stereo not drawn) [Compound 16], the “Liver Luc @ 0.5 mg/kg (ng luc/g liver)” value [1] is reported as 2004 ± 582 ng luc/g liver and the pKa ([2]; Table 3, TNS assay) is reported as 6.43.
In the case of `CCCCCCC(CCCC)C(=O)OCCCCCCCCCC(CCCCCCCCCOC(=O)C(CCCC)CCCCCC)N(C)CCCO` (stereo not drawn) [Compound 19], the “Liver Luc @ 0.5 mg/kg (ng luc/g liver)” value [1] is reported as 216 ± 85 ng luc/g liver and the pKa ([2]; Table 3, TNS assay) is reported as 6.31.
With `CCCCCCCCC(CCCCCC)COC(=O)CCCCCC(CCCCCC(=O)OCC(CCCCCC)CCCCCCCC)N(C)CCCCO` (stereo not drawn) [Compound 18] the “Liver Luc @ 0.5 mg/kg (ng luc/g liver)” value [1] was 1506 ± 429 ng luc/g liver and the pKa ([2]; Table 3, TNS assay) was 6.45.
`CCCCCCCCCN(CCCN(C)C(C)=O)C(CCCCCCCCC(=O)OCC(CCCC)CCCCCC)CCCCCCCCC(=O)OCC(CCCC)CCCCCC` (stereo not drawn) [Compound 1] showed a pKa [2, 3] of 4.69.
With `CCCCCCC(CCCC)COC(=O)CCCCCCCCC(CCCCCCCCC(=O)OCC(CCCC)CCCCCC)N(C)CCCO` (stereo not drawn) [Compound 9] the “Liver Luc (ng luc/g liver)” value [1] was 7628 ± 3298* ng luc/g liver and the pKa ([2]; Table 3, TNS assay) was 6.29.
